In PubChem BioAssay (NCI):
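Assay format: 96-well plates, 48-hour exposure. Abbreviation: GI50, concentration required for 50% inhibition of growth. Definition used: TGI = concentration required for complete inhibition of growth.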

How the values were obtained:
Assay in all cases: growth of human tumour cells (NCI), 48 h
HCC-2998 colon = test system: HCC-2998 colon
A549 NSCLC = test system: A549 NSCLC
U251 CNS = test system: U251 CNS
OVCAR-3 ovarian = test system: OVCAR-3 ovarian
SK-MEL-2 melanoma = test system: SK-MEL-2 melanoma
OVCAR-5 ovarian = test system: OVCAR-5 ovarian
SR leukemia = test system: SR leukemia
SF-539 CNS = test system: SF-539 CNS
TK-10 renal = test system: TK-10 renal
HCT-116 colon = test system: HCT-116 colon

CC(=O)Nc1ccc(CC[C@H]2CCC/C=C/[C@@H]3C[C@H](O)C[C@H]3[C@H](O)/C=C/C(=O)O2)cc1
GI50 (HCC-2998 colon): 0.0781 µM | GI50 (A549 NSCLC): 0.309 µM | TGI (A549 NSCLC): > 100 µM | GI50 (U251 CNS): 0.304 µM | TGI (U251 CNS): > 100 µM | GI50 (OVCAR-3 ovarian): 0.217 µM | TGI (OVCAR-3 ovarian): 0.533 µM | GI50 (SK-MEL-2 melanoma): 0.313 µM | TGI (SK-MEL-2 melanoma): 0.963 µM | GI50 (OVCAR-5 ovarian): 0.346 µM | TGI (OVCAR-5 ovarian): > 66.4 µM | GI50 (SR leukemia): 0.215 µM | GI50 (SF-539 CNS): 0.423 µM | TGI (SF-539 CNS): > 100 µM | GI50 (TK-10 renal): 0.172 µM | TGI (TK-10 renal): 1.06 µM | GI50 (HCT-116 colon): 0.184 µM | TGI (HCT-116 colon): 0.389 µM

CC(C)CC(NC(=O)C(O)C(N)Cc1ccccc1)C(=O)O (stereo not drawn)
TGI (HCC-2998 colon): > 100 µM | TGI (A549 NSCLC): > 100 µM | TGI (U251 CNS): > 100 µM | TGI (OVCAR-3 ovarian): > 100 µM | TGI (SK-MEL-2 melanoma): > 100 µM | TGI (OVCAR-5 ovarian): > 100 µM | TGI (SR leukemia): > 100 µM | TGI (SF-539 CNS): > 100 µM | TGI (TK-10 renal): > 100 µM | TGI (HCT-116 colon): > 100 µM

O=C1CN=C(c2ccccc2)c2ccncc2N1
TGI (HCC-2998 colon): > 100 µM | TGI (A549 NSCLC): > 100 µM | TGI (U251 CNS): > 100 µM | TGI (OVCAR-3 ovarian): > 100 µM | TGI (SK-MEL-2 melanoma): > 100 µM | TGI (OVCAR-5 ovarian): > 100 µM | TGI (SR leukemia): > 100 µM | TGI (SF-539 CNS): > 100 µM | TGI (TK-10 renal): > 100 µM | TGI (HCT-116 colon): > 100 µM

CCOP(=O)(OCC)C(C(=O)OC)C(=O)C(=O)Nc1cccc([N+](=O)[O-])c1 (stereo not drawn)
TGI (HCC-2998 colon): > 100 µM | TGI (A549 NSCLC): > 100 µM | TGI (U251 CNS): > 100 µM | TGI (OVCAR-3 ovarian): > 100 µM | TGI (SK-MEL-2 melanoma): > 100 µM | TGI (OVCAR-5 ovarian): > 100 µM | TGI (SR leukemia): > 100 µM | TGI (SF-539 CNS): > 100 µM | TGI (TK-10 renal): > 100 µM | TGI (HCT-116 colon): > 100 µM

COc1cc2c(cc1OCCCCCOc1ccc(-c3nc4ccccc4s3)cc1)N=C[C@@H]1CCCN1C2=O
GI50 (HCC-2998 colon): 3.02 µM | TGI (HCC-2998 colon): 9.06 µM | GI50 (A549 NSCLC): 5.29 µM | TGI (A549 NSCLC): 20.4 µM | GI50 (U251 CNS): 1.47 µM | TGI (U251 CNS): 16.1 µM | GI50 (OVCAR-3 ovarian): 1.54 µM | TGI (OVCAR-3 ovarian): > 44 µM | GI50 (SK-MEL-2 melanoma): 4.86 µM | TGI (SK-MEL-2 melanoma): 16.2 µM | GI50 (OVCAR-5 ovarian): 2.74 µM | TGI (OVCAR-5 ovarian): 19.2 µM | GI50 (SR leukemia): 0.222 µM | TGI (SR leukemia): 1.43 µM | GI50 (SF-539 CNS): 1.58 µM | TGI (SF-539 CNS): 6.09 µM | GI50 (TK-10 renal): 8.48 µM | TGI (TK-10 renal): > 57.7 µM | GI50 (HCT-116 colon): 1.23 µM | TGI (HCT-116 colon): 12.4 µM

CN(N=O)C(=O)NC(CCCCNC(=O)OCc1ccccc1)C(=O)OCc1ccccc1 (stereo not drawn)
TGI (HCC-2998 colon): > 100 µM | TGI (A549 NSCLC): > 100 µM | TGI (U251 CNS): > 100 µM | TGI (OVCAR-3 ovarian): 98.1 µM | TGI (SK-MEL-2 melanoma): 85.5 µM | TGI (OVCAR-5 ovarian): > 100 µM | TGI (SR leukemia): 58.4 µM | TGI (SF-539 CNS): 32.7 µM | TGI (TK-10 renal): > 100 µM | TGI (HCT-116 colon): > 100 µM

COc1ccc(C(O)C(c2ccc(OCc3ccccc3)cc2)c2ccc(OCc3ccccc3)cc2)cc1 (stereo not drawn)
TGI (HCC-2998 colon): > 100 µM | TGI (A549 NSCLC): > 100 µM | TGI (U251 CNS): > 100 µM | TGI (OVCAR-3 ovarian): > 100 µM | TGI (SK-MEL-2 melanoma): > 100 µM | TGI (OVCAR-5 ovarian): > 100 µM | TGI (SR leukemia): > 100 µM | TGI (SF-539 CNS): > 100 µM | TGI (TK-10 renal): > 100 µM | TGI (HCT-116 colon): > 100 µM

Oc1ccc(CCNc2nc3ccccc3c3[nH]c4ccccc4c23)cc1O
GI50 (HCC-2998 colon): 3.54 µM | TGI (HCC-2998 colon): 14.1 µM | GI50 (A549 NSCLC): 2.26 µM | TGI (A549 NSCLC): 5.95 µM | GI50 (U251 CNS): 2.53 µM | TGI (U251 CNS): 6.51 µM | GI50 (OVCAR-3 ovarian): 1.77 µM | TGI (OVCAR-3 ovarian): 3.7 µM | GI50 (SK-MEL-2 melanoma): 1.73 µM | TGI (SK-MEL-2 melanoma): 3.59 µM | GI50 (OVCAR-5 ovarian): 14 µM | TGI (OVCAR-5 ovarian): 26.9 µM | GI50 (SR leukemia): 1.92 µM | TGI (SR leukemia): 5.74 µM | GI50 (SF-539 CNS): 2.02 µM | TGI (SF-539 CNS): 3.6 µM | GI50 (TK-10 renal): 5.37 µM | TGI (TK-10 renal): 19 µM | GI50 (HCT-116 colon): 1.4 µM | TGI (HCT-116 colon): 2.7 µM
